Earlier results as cited in patent publication US6811840B1, “Decorative transfer process” (Stahls' Inc., priority 1996, dated 2004).

SMILES: CCCCCNc1ccc(NCCCCC)c2c1C(=O)c1ccccc1C2=O [Oil Blue N]
- solubility in water (in words): insoluble in water

SMILES: Cc1ccccc1/N=N/c1ccc(/N=N/c2c(O)ccc3ccccc23)c(C)c1 [Oil Red 234]
- solubility in water (in words): insoluble in water

SMILES: CC1(C)Nc2cccc3c(N=Nc4ccc(N=Nc5ccccc5)c5ccccc45)ccc(c23)N1 [Sudan Black X60]
- solubility in water (in words): insoluble in water

SMILES: CCCCNc1ccc(NCCCC)c2c1C(=O)c1ccccc1C2=O [Sudan Blue 670]
- solubility in water (at 20° C.): less than 1 gram of dye per liter of water

SMILES: Oc1ccc2ccccc2c1N=Nc1ccccc1 [Sudan Orange 220]
- solubility in water (in words): insoluble in water
